Measured values taken from US20230013602A1, “NOVEL IMIDAZOPYRAZINE DERIVATIVES” (Hoffmann-La Roche Inc., priority 2018, published 2023).
Counter-ions that a name gives are not always drawn.

The molecules below were run on Acinetobacter baumannii ATCC17961 (assay: Antimicrobial susceptibility testing, 90% growth inhibitory concentration (IC90) determination). Conditions: 90% growth inhibitory concentration, Acinetobacter baumannii ATCC17961, Iso-Sensitest broth, OD 600 nm over 16 h; read-out: ATCC17961 IC90.
Format: cell-based
Protocol: The in vitro antimicrobial activity of the compounds was determined according to the following procedure:
The assay used a 10-points Iso-Sensitest broth medium to measure quantitatively the in vitro activity of the compounds against Acinetobacter baumannii ATCC 17978 and Acinetobacter baumannii ATCC17961.
Stock compounds in DMSO were serially twofold diluted (e.g. range from 50 to 0.097 μM final concentration) in 384 wells microtiter plates and inoculated with 49 μl the bacterial suspension in Iso-Sensitest medium to have a final cell concentration of ˜5×10^(5) CFU/ml in a final volume/well of 50 ul/well. Microtiter plates were incubated at 35+2° C.
Bacterial cell growth was determined with the measurement of optical density at X=600 nm each 20 minutes over a time course of 16 h. Growth inhibition was calculated during the logarithmic growth of the bacterial cells with determination of the concentration inhibiting 50% (IC50) and 90% (IC90) of the growth.
Table 1 provides the 90% growth inhibitory concentrations (IC90) in micromoles per liter of the compounds of present invention obtained against the strain Acinetobacter baumannii ATCC17978 and Acinetobacter baumannii ATCC17961.
`CCc1cc(Nc2nccn3c(-c4ccc(OC)c(F)c4F)cnc23)ccc1C(=O)N[C@@H]1C[C@H]1NC(=O)[C@@H]1C[C@@H](O)CN1` (mixture of isomers) [Example 68, (2S,4R)-N-[(1RS, 2RS)-2-[[4-[[3-(2,3-difluoro-4-methoxy-phenyl)imidazo[1,2-a]pyrazin-8-yl]amino]-2-ethyl-benzoyl]amino]cyclopropyl]-4-hydroxy-pyrrolidine-2-carboxamide] gave an IC90 of 140 nM. `CCc1cc(Nc2nccn3c(-c4ccc(OC)c(F)c4F)cnc23)ccc1C(=O)NC1CCC1NC(=O)[C@@H]1C[C@@H](O)CN1` (mixture of isomers) [Example 69, (2S,4R)-N-(2-(4-((3-(2,3-difluoro-4-methoxyphenyl)imidazo[1,2-a]pyrazin-8-yl)amino)-2-ethylbenzamido)cyclobutyl)-4-hydroxypyrrolidine-2-carboxamide] was tested, and the IC90 was 246 nM. Molecule `CCc1cc(Nc2nccn3c(-c4ccc(OC)c(F)c4F)cnc23)ccc1C(=O)NC1CC1NC(=O)[C@@H]1C[C@@H](O)CN1` (mixture of isomers) [Example 73, (2S,4R)-N-[(cis-1SR,2RS)-2-[[4-[[3-(2,3-difluoro-4-methoxy-phenyl)imidazo[1,2-a]pyrazin-8-yI]amino]-2-ethyl-benzoyl]amino]cyclopropyl]-4-hydroxy-pyrrolidine-2-carboxamide] has an IC90 of 173 nM. For `CCc1cc(Nc2nccn3c(-c4ccc(OC)c(F)c4F)cnc23)ccc1C(=O)N[C@H]1CC[C@H](N)C1` (racemic) [Example 43, rac-N-((1R,3 R)-3-aminocyclopentyl)-4-((3-(2,3-difluoro-4-methoxyphenyl)imidazo[1,2-a]pyrazin-8-yl)amino)-2-ethylbenzamide], the IC90 was 211 nM. For `CCc1cc(Nc2nccn3c(-c4ccc(OC)c(F)c4F)cnc23)ccc1C(=O)NC1CCC(NC(=O)[C@@H](N)CCCNC(=N)N)C1` (mixture of isomers) [Example 46, rac-N-(3-((R)-2-amino-5-guanidinopentanamido)cyclopentyl)-4-((3-(2,3-difluoro-4-methoxyphenyl)imidazo[1,2-a]pyrazin-8-yl)amino)-2-ethylbenzamide bis(2,2,2-trifluoroacetate)], the IC90 was 754 nM. Molecule `CCc1cc(Nc2nccn3c(-c4ccc(OC)c(F)c4F)cnc23)ccc1C(=O)NC1CCCN(C(=O)[C@@H](N)CCCNC(=N)N)C1` (mixture of isomers) [Example 48, rac-N-(1-(D-arginyl)piperidin-3-yl)-4-((3-(2,3-difluoro-4-methoxyphenyl)imidazo[1,2-a]pyrazin-8-yl)amino)-2-ethylbenzamide bis(2,2,2-trifluoroacetate)] has an IC90 of 749 nM. `COc1ccc(-c2cnc3c(Nc4ccc(C(=O)N[C@H]5CC[C@H](N)C5)c(C)c4)nccn23)c(F)c1F` (racemic) [Example 54, rac-N-((1R,3R)-3-aminocyclopentyl)-4-((3-(2,3-difluoro-4-methoxyphenyl)imidazo[1,2-a]pyrazin-8-yl)amino)-2-methylbenzamide] was tested, and the IC90 was 238 nM. Molecule `CCc1cc(Nc2nccn3c(-c4ccc(OC)c(F)c4F)cnc23)ccc1C(=O)N[C@@H]1C[C@H]1N` (racemic) [Example 58, rac-N-((1R,2R)-2-aminocyclopropyl)-4-((3-(2,3-difluoro-4-methoxyphenyl)imidazo[1,2-a]pyrazin-8-yl)amino)-2-ethylbenzamide] has an IC90 of 315 nM. `COc1ccc(-c2cnc3c(Nc4ccc(C(=O)NC5CCCN(C(=O)[C@@H]6C[C@@H](O)CN6)C5)c(C)c4)nccn23)c(F)c1F` (mixture of isomers) [Example 59, rac-4-((3-(2,3-difluoro-4-methoxyphenyl)imidazo[1,2-a]pyrazin-8-yl)amino)-N-(1-((2R,4S)-4-hydroxypyrrolidine-2-carbonyl)piperidin-3-yl)-2-methylbenzamide] gave an IC90 of 294 nM. `CCc1cc(Nc2nccn3c(-c4ccc(OC)c(F)c4F)cnc23)ccc1C(=O)N[C@@H]1C[C@@H]1N` (racemic) [Example 74, rac-N-((1R,2S)-2-aminocyclopropyl)-4-((3-(2,3-difluoro-4-methoxyphenyl)imidazo[1,2-a]pyrazin-8-yl)amino)-2-ethylbenzamide] showed an IC90 of 201 nM. `CCc1cc(Nc2nccn3c(-c4ccc(OC)c(F)c4F)cnc23)ccc1C(=O)NC1CCCNC1` (stereo not shown) [Example 41, 4-((3-(2,3-difluoro-4-methoxyphenyl)imidazo[1,2-a]pyrazin-8-yl)amino)-2-ethyl-N-(piperidin-3-yl)benzamide] gave an IC90 of 363 nM. `CCc1cc(Nc2nccn3c(-c4ccc(OC)c(F)c4F)cnc23)ccc1C(=O)N[C@H]1CC[C@H](N)CC1` [Example 42, trans-N-((1r,4r)-4-aminocyclohexyl)-4-((3-(2,3-difluoro-4-methoxyphenyl)imidazo[1,2-a]pyrazin-8-yl)amino)-2-ethylbenzamide] showed an IC90 of 260 nM. With `CCc1cc(Nc2nccn3c(-c4ccc(OC)c(F)c4F)cnc23)ccc1C(=O)NC1CCN(C(=O)[C@@H](N)CCCNC(=N)N)CC1` [Example 44, N-(1-(L-arginyl)piperidin-4-yl)-4-((3-(2,3-difluoro-4-methoxyphenyl)imidazo[1,2-a]pyrazin-8-yl)amino)-2-ethylbenzamide bis(2,2,2-trifluoroacetate)] the IC90 was 847 nM. Molecule `CCc1cc(Nc2nccn3c(-c4ccc(OC)c(F)c4F)cnc23)ccc1C(=O)N[C@H]1CC[C@H](NC(=O)[C@@H](N)CCCNC(=N)N)CC1` [Example 45, N-((1S,4r)-4-((S)-2-amino-5-guanidinopentanamido)cyclohexyl)-4-((3-(2,3-difluoro-4-methoxyphenyl)imidazo[1,2-a]pyrazin-8-yl)amino)-2-ethylbenzamide bis(2,2,2-trifluoroacetate)] has an IC90 of 559 nM. `CCc1cc(Nc2nccn3c(-c4ccc(OC)c(F)c4F)cnc23)ccc1C(=O)N[C@@H]1CCN(C(=O)[C@@H](N)CCCNC(=N)N)C1` [Example 47, N-((R)-1-(L-arginyl)pyrrolidin-3-yl)-4-((3-(2,3-difluoro-4-methoxyphenyl)imidazo[1,2-a]pyrazin-8-yl)amino)-2-ethylbenzamide bis(2,2,2-trifluoroacetate)] gave an IC90 of 352 nM. `CCc1cc(Nc2nccn3c(-c4ccc(OC)c(F)c4F)cnc23)ccc1C(=O)NC1CCCCC1NC(=O)[C@@H]1C[C@@H](O)CN1` (stereo partly drawn) [Example 49, (2S,4R)-N-(2-(4-((3-(2,3-difluoro-4-methoxyphenyl)imidazo[1,2-a]pyrazin-8-yl)amino)-2-ethylbenzamido)cyclohexyl)-4-hydroxypyrrolidine-2-carboxamide dihydrochloride] was tested, and the IC90 was 274 nM. With `COc1ccc(-c2cnc3c(Nc4ccc(C(=O)NC5CCNCC5)c(C)c4)nccn23)c(F)c1F` [Example 50, 4-((3-(2,3-difluoro-4-methoxyphenyl)imidazo[1,2-a]pyrazin-8-yl)amino)-2-methyl-N-(piperidin-4-yl)benzamide] the IC90 was 319 nM. In the case of `COc1ccc(-c2cnc3c(Nc4ccc(C(=O)NC5CCCNC5)c(C)c4)nccn23)c(F)c1F` (stereo not shown) [Example 51, 4-((3-(2,3-difluoro-4-methoxyphenyl)imidazo[1,2-a]pyrazin-8-yl)amino)-2-methyl-N-(piperidin-3-yl)benzamide], the IC90 is reported as 324 nM. Work on `COc1ccc(-c2cnc3c(Nc4ccc(C(=O)N[C@H]5CC[C@H](N)CC5)c(C)c4)nccn23)c(F)c1F` [Example 52, rac-N-((1r,4r)-4-aminocyclohexyl)-4-((3-(2,3-difluoro-4-methoxyphenyl)imidazo[1,2-a]pyrazin-8-yl)amino)-2-methylbenzamide] yielded an IC90 of 243 nM. For `CCc1cc(Nc2nccn3c(-c4ccc(OC)c(F)c4F)cnc23)ccc1C(=O)N[C@H]1CCC[C@H]1NC(=O)[C@@H]1C[C@@H](O)CN1` [Example 53, (2S,4R)-N-((1R, 2S)-2-(4-((3-(2,3-difluoro-4-methoxyphenyl)imidazo[1,2-a]pyrazin-8-yl)amino)-2-ethylbenzamido)cyclopentyl)-4-hydroxypyrrolidine-2-carboxamide], the IC90 was 987 nM. In the case of `COc1ccc(-c2cnc3c(Nc4ccc(C(=O)N[C@H]5CCNC5)c(C)c4)nccn23)c(F)c1F` [Example 55, (S)-4-((3-(2,3-difluoro-4-methoxyphenyl)imidazo[1,2-a]pyrazin-8-yl)amino)-2-methyl-N (pyrrolidin-3-yl)benzamide], the IC90 is reported as 236 nM. Work on `COc1ccc(-c2cnc3c(Nc4ccc(C(=O)NC5CNC5)c(C)c4)nccn23)c(F)c1F` [Example 56, N-(azetidin-3-yl)-4-((3-(2,3-difluoro-4-methoxyphenyl)imidazo[1,2-a]pyrazin-8-yl)amino)-2-methylbenzamide] yielded an IC90 of 279 nM. `COc1ccc(-c2cnc3c(Nc4ccc(C(=O)N[C@H]5C[C@H](N)C5)c(C)c4)nccn23)c(F)c1F` [Example 57, rac-N-((1r,3r)-3-aminocyclobutyl)-4-((3-(2,3-difluoro-4-methoxyphenyl)imidazo[1,2-a]pyrazin-8-yl)amino)-2-methylbenzamide] was tested, and the IC90 was 247 nM. Molecule `COc1ccc(-c2cnc3c(Nc4ccc(C(=O)N[C@H]5CC[C@@H](NC(=O)C(C)C)CC5)c(C)c4)nccn23)c(F)c1F` [Example 60, rac-4-((3-(2,3-dif!uoro-4-methoxyphenyl)imidazo[1,2-a]pyrazin-8-yl)amino)-N-((1s,4s)-4-isobutyramidocyclohexyl)-2-methylbenzamide] has an IC90 of 189 nM. `CCc1cc(Nc2nccn3c(-c4ccc(OC)c(F)c4F)cnc23)ccc1C(=O)NC12CC(N)(C1)C2` [Example 61, N-(3-aminobicyclo[1.1.1]pentan-1-yl)-4-((3-(2,3-difluoro-4-methoxyphenyl)imidazo[1,2-a]pyrazin-8-yl)amino)-2-ethylbenzamide dihydrochloride] gave an IC90 of 259 nM.
